In patent US4440757A, “Pharmaceutical composition comprising derivative of aminobenzoic acid for regulating prostaglandin” (priority 1978, dated 1984):

How the values were obtained:
Ehrlich cancer cells [1] = assay: PGE in cancer cells and ascites of mouse transplanted with Ehrlich cancer cells; format: in vivo, female ICR-JCL mouse; details: 200 mg/kg/day i.p., 5 days
Experimental: To groups of female ICR-JCL mouse after 5 weeks of her birth, Ehrlich cancer cells were intraperitoneally transplanted at a rate of 1×10^6 cells/animal and one of the present substances, Specimen No. 7 was administered intraperitoneally to the mice every day from the next day of transplantation for 5 days at a rate of 200 mg/kg/day. The mice were sacrificed with ether on the 6th day of transplantation, and the ascites were collected. After adding tetrasodium ethylenediamminetetraacetate with 1% by weight of aspirin into the ascites, it was centrifugated for 10 min at 1500 rpm and a temperature of 4° C. to separate the cancer cells and the supernatant liquid. The supernatant liquid was further centrifugated at 4° C. and 3000 rpm for 15 min. The separated cancer cells was washed with Hank's solution, and was subjected to centrifugation 5 times at 800 rpm for each 5 min to remove impurities such as erythrocytes, etc. The thus purified cancer cells of 1×10^8 in number were homogenized at 0° C. after addition of 7 ml of methanol, and the homogenate was filtered with filter paper. After adding 14 ml of chloroform to the filtrate and mixing, the mixture was left for 30 min at a temperature of 4° C. […] The content of PGE in the solution and in the supernatant liquid of the ascites was determined by ^3 H-ProstaglandinE Radioimmunoassay Kit. […]

[2] = test system: HeLa S3 cultured cells of human uterine cancer; assay: PGE in culture medium of human uterine cancer cells; format: cell-based; details: for Concentration of PGE after culture: 2 days, control 312; for Change of Concentration of PGE during culture: control +120
Experimental: To each 10 ml of a culture medium prepared by adding 10% bovine foetal serum and one of the present substance, Specimen No. 7, at a concentration of 0 (control), 10, 100, 500, 1,000 or 5,000 μg/ml to Eagle's culture medium and placed in a polystyrene flask of 75 cm^2 in bottom surface, HeLa S3 cultured cells of human uterine cancer were inoculated at a rate of 5×10^5 cells/flask and cultured at 37° C. for 2 days under a mixed atmosphere of 5% by volume of gaseous carbon dioxide and 95% by volume of air. After the incubation was over, the whole cultured medium was centrifugated at a temperature of 4° C. at 1,500 rpm to obtain a supernatant liquid of the cultured medium. The content of PGE in the supernatant liquid was determined by ^3 H-Prostaglandin E Radioimmunoassay Kit.

Ehrlich cancer cells [3] = assay: Cyclic AMP and cyclic GMP in cancer cells of cancer-bearing mouse; format: in vivo, female ICR/JCL mice; details: 200 mg/kg/day i.p., 5 days
Experimental: Ehrlich cancer cells were transplanted into the abdominal cavity of female ICR/JCL mice after 5 weeks of birth at a rate of 1×10^6, cells/animal, and while feeding the mice, the present substance, Specimen No. 7, was intraperitoneally administered to the mice every day from the next day of transplantation for 5 days at a rate of 200 mg/kg/day. On the 6th day, the mice were sacrificed with ether to collect each 5 ml of ascites. After adding tetrasodium ethylenediamminetetraacetate into the thus collected ascites, the mixture was centrifugated for 10 min at a temperature of 4° C. and 1,500 rpm to separate the supernatant liquid and the cancer cells. The supernatant liquid was again centrifugated at 4° C. and 3,000 rpm for 15 min. The separated cancer cells were washed with Hank's solution and then subjected to repeated centrifugation for 5 times at 800 rpm for each 5 min to remove impurities such as erythrocytes, etc. After homogenizing 1×10^8 cells of the cancer in 3 ml of an aqueous 6% solution of trichloroacetic acid at a temperature of 0° C., the homogenate was centrifugated for 20 min at 3000XG to obtain a liquid extract. After adding 10% by weight of an aqueous 1 N solution of hydrochloric acid to the liquid extract, it was extracted 5 times with each two times by volume of ether to remove trichloroacetic acid. […]

For O=C(O)c1ccc(NC2OC[C@@H](O)[C@H](O)[C@H]2O)cc1 (stereo partly drawn) [Specimen No. 7, Sodium p-aminobenzoate-N--D-xyloside], the “Content of PGE in supernatant liquid of ascites” value (Ehrlich cancer cells [1]; control 0.26) was 0.12 ng, the “Content of PGE in 10^8 cells” value (Ehrlich cancer cells [1]; control 2.36) was 3.06 ng and the “Concentration of PGE after culture” value ([2]; 10 μg/ml) was 40 pg/mL. For the same molecule, the “Change of Concentration of PGE during culture” value (from here on “Change”) ([2]; 10 μg/ml) was -152 pg/mL, the “Concentration of PGE after culture” value ([2]; 100 μg/ml) was 80 pg/mL and the “Change” value ([2]; 100 μg/ml) was -112 pg/mL. For the same molecule, the “Concentration of PGE after culture” value ([2]; 500 μg/ml) was 48 pg/mL, the “Change” value ([2]; 500 μg/ml) was -144 pg/mL and the “Concentration of PGE after culture” value ([2]; 1000 μg/ml) was 25 pg/mL. For the same molecule, the “Change” value ([2]; 1000 μg/ml) was -167 pg/mL, the “Concentration of PGE after culture” value ([2]; 5000 μg/ml) was 25 pg/mL and the “Change” value ([2]; 5000 μg/ml) was -167 pg/mL. The “GMP per 10^8 cancer cells” value (Ehrlich cancer cells [3]; control 0.59) was 0.72 pM and the “Cyclic AMP per 10^8 cancer cells” value (Ehrlich cancer cells [3]; control 19.5) was 21.2 pM.
